Test results reported in patent US9040545B2, “Heterocyclyl pyrazolopyrimidine analogues as selective JAK inhibitors” (Cellzome Limited, priority 2010, dated 2015).

biological target: T1, JAK3 (Homo sapiens, UniProt P52333); experiment: Kinobeads assay, JAK3; assay type: binding; conditions: mixed Molt4/Ramos lysate, read-out: Inhibition values (IC50) JAK3
T1 construct: endogenous in cells; host or cells: mixed Molt4/Ramos lysate (1:2)
T1 sequence (P52333 1-1124): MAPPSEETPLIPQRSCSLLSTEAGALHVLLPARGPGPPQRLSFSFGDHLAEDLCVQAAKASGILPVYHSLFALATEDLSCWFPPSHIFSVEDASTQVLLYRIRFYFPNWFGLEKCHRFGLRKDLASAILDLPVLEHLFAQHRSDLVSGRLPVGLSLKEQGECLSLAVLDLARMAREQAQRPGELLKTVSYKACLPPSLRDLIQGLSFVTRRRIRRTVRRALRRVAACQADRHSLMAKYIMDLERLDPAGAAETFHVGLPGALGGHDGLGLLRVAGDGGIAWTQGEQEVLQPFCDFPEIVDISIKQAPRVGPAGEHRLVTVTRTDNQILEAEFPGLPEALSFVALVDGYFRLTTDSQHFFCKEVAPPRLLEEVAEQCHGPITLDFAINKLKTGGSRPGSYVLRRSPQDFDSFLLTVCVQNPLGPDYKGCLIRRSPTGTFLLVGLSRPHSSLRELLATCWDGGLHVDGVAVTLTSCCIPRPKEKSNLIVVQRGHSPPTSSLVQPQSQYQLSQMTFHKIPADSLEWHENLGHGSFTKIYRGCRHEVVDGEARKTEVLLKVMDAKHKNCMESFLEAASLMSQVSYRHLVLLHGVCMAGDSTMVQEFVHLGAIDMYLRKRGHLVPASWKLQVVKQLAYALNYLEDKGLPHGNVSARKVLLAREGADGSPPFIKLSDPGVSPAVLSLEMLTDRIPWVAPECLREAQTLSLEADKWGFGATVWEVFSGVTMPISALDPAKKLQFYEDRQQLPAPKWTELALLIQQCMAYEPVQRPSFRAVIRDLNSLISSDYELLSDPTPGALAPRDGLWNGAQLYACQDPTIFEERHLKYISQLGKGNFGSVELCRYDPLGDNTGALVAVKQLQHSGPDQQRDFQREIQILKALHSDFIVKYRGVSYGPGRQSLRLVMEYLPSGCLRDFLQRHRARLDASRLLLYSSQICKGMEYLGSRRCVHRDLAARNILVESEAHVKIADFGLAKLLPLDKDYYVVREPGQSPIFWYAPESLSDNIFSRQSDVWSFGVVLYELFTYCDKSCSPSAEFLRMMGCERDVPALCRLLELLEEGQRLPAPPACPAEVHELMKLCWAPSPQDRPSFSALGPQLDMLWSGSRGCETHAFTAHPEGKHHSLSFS
Protocol: The compounds of the present invention as described in the previous examples were tested in a Kinobeads™ assay as described for ZAP-70 (WO-A 2007/137867). Briefly, test compounds (at various concentrations) and the affinity matrix with the immobilized aminopyrido-pyrimidine ligand 24 were added to cell lysate aliquots and allowed to bind to the proteins in the lysate sample. After the incubation time the beads with captured proteins were separated from the lysate. Bound proteins were then eluted and the presence of JAK2 and JAK3 was detected and quantified using specific antibodies in a dot blot procedure and the Odyssey infrared detection system. Dose response curves for individual kinases were generated and IC50 values calculated. Kinobeads™ assays for ZAP-70 (WO-A 2007/137867) and for kinase selectivity profiling (WO-A 2006/134056) have been previously described.
The affinity matrix was washed two times with 15 mL of 1×DP buffer containing 0.2% NP40 (IGEPAL® CA-630, Sigma, #I3021) and then resuspended in 1×DP buffer containing 0.2% NP40 (3% beads slurry).
5×DP buffer 250 mM Tris-HCl pH 7.4, 25% Glycerol, 7.5 mM MgCl2, 750 mM NaCl, 5 mM Na3VO4; filter the 5×DP buffer through a 0.22 μm filter and store in aliquots at −80° C. The 5×DP buffer is diluted with H2O to 1×DP buffer containing 1 mM DTT and 25 mM NaF.
Stock solutions of test compounds were prepared in DMSO. In a 96 well plate 30 μL solution of diluted test compounds at 5 mM in DMSO were prepared. Starting with this solution a 1:3 dilution series (9 steps) was prepared. For control experiments (no test compound) a buffer containing 2% DMSO was used.
Molt4 cells (ATCC catalogue number CRL-1582) and Ramos cells (ATCC catalogue number CRL-1596) were grown in 1 L Spinner flasks (Integra Biosciences, #182101) in suspension in RPMI 1640 medium (Invitrogen, #21875-034) supplemented with 10% Fetal Bovine Serum (Invitrogen) at a density between 0.15×106 and 1.2×10^6 cells/mL. Cells were harvested by centrifugation, washed once with 1×PBS buffer (Invitrogen, #14190-094) and cell pellets were frozen in liquid nitrogen and subsequently stored at −80° C. Cells were homogenized in a Potter S homogenizer in lysis buffer: 50 mM Tris-HCl, 0.8% NP40, 5% glycerol, 150 mM NaCl, 1.5 mM MgCl2, 25 mM NaF, 1 mM sodium vanadate, 1 mM DTT, pH 7.5. One complete EDTA-free tablet (protease inhibitor cocktail, Roche Diagnostics, 1873580) per 25 mL buffer was added. The material was dounced 10 times using a mechanized POTTER S, transferred to 50 mL falcon tubes, incubated for 30 minutes on ice and spun down for 10 minutes at 20,000 g at 4° C. (10,000 rpm in Sorvall SLA600, precooled). The supernatant was transferred to an ultracentrifuge (UZ)-polycarbonate tube (Beckmann, 355654) and spun for 1 hour at 100,000 g at 4° C. (33.500 rpm in Ti50.2, precooled). The supernatant was transferred again to a fresh 50 mL falcon tube, the protein concentration was determined by a Bradford assay (BioRad) and samples containing 50 mg of protein per aliquot were prepared. The samples were immediately used for experiments or frozen in liquid nitrogen and stored frozen at −80° C.
Cell lysate (approximately 50 mg protein per plate) was thawed in a water bath at room temperature and then stored on ice. To the thawed cell lysate 1×DP 0.8% NP40 buffer containing protease inhibitors (1 tablet for 25 mL buffer; EDTA-free protease inhibitor cocktail; Roche Diagnostics 1873580) was added in order to reach a final protein concentration of 10 mg/mL total protein. The diluted cell lysate was stored on ice. Mixed Molt4/Ramos lysate was prepared by combining one volume of Molt4 lysate and two volumes of Ramos lysate (ratio 1:2).
To a 96 well filter plate (Multiscreen HTS, BV Filter Plates, Millipore #MSBVN1250) were added per well: 100 μL affinity matrix (3% beads slurry), 3 μL of compound solution, and 50 μL of diluted lysate. […]

IC50 [µM] | Structure (SMILES)
< 0.1 | Cn1cc(Nc2ncc3cnn(Cc4cccc(N5CCNCC5)c4)c3n2)cn1 [Example 22, N-(1-Methyl-1H-pyrazol-4-yl)-1-(3-(piperazin-1-yl)benzyl)-1H-pyrazolo[3,4-d]pyrimidin-6-amine]
< 0.1 | Cn1cc(Nc2ncc3cnn(Cc4cccc(CN5CCOCC5)c4)c3n2)cn1 [Example 7, N-(1-Methyl-1H-pyrazol-4-yl)-1-(3-(morpholinomethyl)benzyl)-1H-pyrazolo[3,4-d]pyrimidin-6-amine]
< 0.1 | Cn1cc(Nc2ncc3cnn(Cc4cccc(C5CCOCC5)c4)c3n2)cn1 [Example 9, N-(1-Methyl-1H-pyrazol-4-yl)-1-(3-(tetrahydro-2H-pyran-4-yl)benzyl)-1H-pyrazolo[3,4-d]pyrimidin-6-amine]
< 0.1 | Cn1cc(Nc2ncc3cnn(Cc4cccc(N5CC6(COC6)C5)c4)c3n2)cn1 [Example 89, 1-(3-(2-oxa-6-azaspiro[3.3]heptan-6-yl)benzyl)-N-(1-methyl-1H-pyrazol-4-yl)-1H-pyrazolo[3,4-d]pyrimidin-6-amine]
< 0.1 | NC(=O)CCn1cc(Nc2ncc3cnn(Cc4cccc(N5CCOCC5)c4)c3n2)cn1 [Example 14, 3-(4-((1-(3-Morpholinobenzyl)-1H-pyrazolo[3,4-d]pyrimidin-6-yl)amino)-1H-pyrazol-1-yl)propanamide]
< 0.1 | FC(F)Cn1cc(Nc2ncc3cnn(Cc4cccc(N5CCOCC5)c4)c3n2)cn1 [Example 23, N-(1-(2,2-Difluoroethyl)-1H-pyrazol-4-yl)-1-(3-morpholinobenzyl)-1H-pyrazolo[3,4-d]pyrimidin-6-amine]
< 0.1 | Cn1cc(Nc2ncc3cnn(Cc4cccc(N5CCOCC5)n4)c3n2)cn1 [Example 3, N-(1-Methyl-1H-pyrazol-4-yl)-1-((6-morpholinopyridin-2-yl)methyl)-1H-pyrazolo[3,4-d]pyrimidin-6-amine]
< 0.1 | Cn1cc(Nc2ncc3cnn(Cc4cccc(N5CCS(=O)(=O)CC5)c4)c3n2)cn1 [Example 25, 4-(3-((6-((1-Methyl-1H-pyrazol-4-yl)amino)-1H-pyrazolo[3,4-d]pyrimidin-1-yl)methyl)phenyl)thiomorpholine 1,1-dioxide]
< 0.1 | CC(CN(C)C)Cn1cc(Nc2ncc3cnn(Cc4cccc(N5CCOCC5)c4)c3n2)cn1 (centres unmarked) [Example 32, N-(1-(3-(Dimethylamino)-2-methylpropyl)-1H-pyrazol-4-yl)-1-(3-morpholinobenzyl)-1H-pyrazolo[3,4-d]pyrimidin-6-amine]

Continued, compound first:

Structure (SMILES) | IC50 [µM]
N#CCCn1cc(Nc2ncc3cnn(Cc4cc(F)cc(N5CCOCC5=O)c4)c3n2)cn1 [Example 107, 3-(4-((1-(3-fluoro-5-(3-oxomorpholino)benzyl)-1H-pyrazolo[3,4-d]pyrimidin-6-yl)amino)-1H-pyrazol-1-yl)propanenitrile] | < 0.1
O=C(c1cc(F)c(F)c(Cn2ncc3cnc(Nc4cnn(CCO)c4)nc32)c1F)N1CCOCC1 [Example 111, morpholino(2,4,5-trifluoro-3-((6-((1-(2-hydroxyethyl)-1H-pyrazol-4-yl)amino)-1H-pyrazolo[3,4-d]pyrimidin-1-yl)methyl)phenyl)methanone] | < 0.1
OCCn1cc(Nc2ncc3cnn(Cc4cc(F)cc(N5CCNCC5)c4F)c3n2)cn1 [Example 96, 2-(4-((1-(2,5-difluoro-3-(piperazin-1-yl)benzyl)-1H-pyrazolo[3,4-d]pyrimidin-6-yl)amino)-1H-pyrazol-1-yl)ethanol] | < 0.1
Cn1cc(Nc2ncc3cnn(Cc4cccc(-c5cn[nH]c5)c4)c3n2)cn1 [Example 118, 1-(3-(1H-pyrazol-4-yl)benzyl)-N-(1-methyl-1H-pyrazol-4-yl)-1H-pyrazolo[3,4-d]pyrimidin-6-amine] | < 0.1
O=C(CCn1cc(Nc2ncc3cnn(Cc4cccc(N5CCOCC5)c4)c3n2)cn1)N1CCCCC1 [Example 20, 3-(4-((1-(3-Morpholinobenzyl)-1H-pyrazolo[3,4-d]pyrimidin-6-yl)amino)-1H-pyrazol-1-yl)-1-(piperidin-1-yl)propan-1-one] | < 0.1
Cn1cc(Nc2ncc3cnn(Cc4c(F)c(F)cc(N5CCOCC5)c4F)c3n2)cn1 [Example 17, N-(1-Methyl-1H-pyrazol-4-yl)-1-(2,3,6-trifluoro-5-morpholinobenzyl)-1H-pyrazolo[3,4-d]pyrimidin-6-amine] | < 0.1
Cn1cc(Nc2ncc3cnn(Cc4cc(F)cc(-c5cnn(C)c5)c4)c3n2)cn1 [Example 125, 1-(3-fluoro-5-(1-methyl-1H-pyrazol-4-yl)benzyl)-N-(1-methyl-1H-pyrazol-4-yl)-1H-pyrazolo[3,4-d]pyrimidin-6-amine] | < 0.1
C[C@@H]1COCCN1c1cccc(Cn2ncc3cnc(Nc4cnn(C)c4)nc32)n1 [Example 1, (R)—N-(1-Methyl-1H-pyrazol-4-yl)-1-((6-(3-methylmorpholino)pyridin-2-yl)methyl)-1H-pyrazolo[3,4-d]pyrimidin-6-amine] | < 0.1
CCn1cc(-c2cccc(Cn3ncc4cnc(Nc5cnn(C)c5)nc43)c2)cn1 [Example 116, 1-(3-(1-ethyl-1H-pyrazol-4-yl)benzyl)-N-(1-methyl-1H-pyrazol-4-yl)-1H-pyrazolo[3,4-d]pyrimidin-6-amine] | < 0.1
O=C(CCn1cc(Nc2ncc3cnn(Cc4cccc(N5CCOCC5)c4)c3n2)cn1)NC1CC1 [Example 35, N-Cyclopropyl-3-(4-((1-(3-morpholinobenzyl)-1H-pyrazolo[3,4-d]pyrimidin-6-yl)amino)-1H-pyrazol-1-yl)propanamide] | < 0.1
O=C1COCCN1c1cc(F)cc(Cn2ncc3cnc(Nc4cnn(C5CCNCC5)c4)nc32)c1 [Example 102, 4-(3-fluoro-5-((6-((1-(piperidin-4-yl)-1H-pyrazol-4-yl)amino)-1H-pyrazolo[3,4-d]pyrimidin-1-yl)methyl)phenyl)morpholin-3-one] | < 0.1
